The values that follow come from patent US20260137696A1, “Compositions Comprising an Inhibitor of Galectin-3” (University of Liverpool, priority 2023, published 2026).

Holding throughout (assay type): in vivo, Balb/c nude mice
One assay has as its system SW620 cells. As to the kind of experiment: Tumour growth in mice (subcutaneous graft). As to conditions: 5 mg/kg subcutaneously, 3 times a week for 4 weeks. On the procedure: The compound of Formula I effect on tumour growth was assessed in Balb/c nude mice. Luciferase-transfected human colon cancer SW620 cells were grafted subcutaneously to mice and the compound of Formula I (5 mg/kg) was administrated subcutaneously, 3 times a week for 4 weeks. Tumour growths were monitored by IVIS imaging (FIG. 11A) and also measured by clipers.
The compound of Formula I effect on tumour growth was assessed in Balb/c nude mice. Luciferase-transfected human colon cancer SW620 cells were grafted subcutaneously to mice and the compound of Formula I (5 mg/kg) was administrated subcutaneously, 3 times a week for 4 weeks. Tumour growths were monitored by IVIS imaging and also measured by clipers.
(§1) Female Balb/c nude mice aged 6-7 weeks were purchased from Charles River Laboratories (Margate, UK) and maintained in specific pathogen-free conditions with a 12:12 hour light:dark cycle. All animal studies were conducted with UK Home Office and local ethics committee approval.
Sixteen 6˜7 weeks old mice were randomly divided into two equal A and B groups (8 mice/group). The animals were injected s.c. with 2×10^6 ZsGreen- and luciferase-expressing SW620Gal3+ cells. […] Tumour size were measured with callipers every two days. […]

A further assay relates to SW620^Gal3− cells. Kind of assay: Tumour cell metastatic spread in mice (intravenous inoculation). The following applies: 10 mg/kg/day subcutaneously; Galectin-3-suppressed SW620^Gal3− cells. How it is done:
(§2) The compound of Formula I effect on cancer metastasis was assessed in Balb/c nude mice. Luciferase-transfected, Galectin-3-expressing colon cancer SW620^Gal3+ and Galectin-3-suppressed SW620^Gal3− cells were inoculated to mice intravenously and the compound of Formula I was administrated subcutaneously, 10 mg/kg/day for 3 consecutive days in the first week and then once every week. Metastasis was monitored by IVIS imaging. […] The animals were sacrificed five weeks after tumour cell inoculation and the number of metastasis nodules on the surface of the animal lungs were quantified (FIG. 12B). Administration of the compound of Formula I caused 88% reduction of lung metastasis of Galectin-3-expressing SW620^Gal3+ cells but had little effect on Galectin-3-suppressed SW620^Gal3− cells;
as §2, with “for 5” for “for 3”, “first” for “first week and then once every”, “Galectin-3-suppressed SW620^Gal3 cells.” for “Galectin-3-suppressed SW620^Gal3− cells;”
as §1
(§3) Thirty-two mice were randomly divided into four groups (A to D). […] Tumour number on the surface of the lungs was assessed using a dissection microscope.

The next assay has as its system SW620^Gal3+ cells. Described as above. As to conditions: 10 mg/kg/day subcutaneously. How it is done: as §2
as §2, with “for 5” for “for 3”, “first” for “first week and then once every”, “Galectin-3-suppressed SW620^Gal3 cells.” for “Galectin-3-suppressed SW620^Gal3− cells;”
as §1, §3

Take `C[C@H]1COc2c(N3CCN(C)CC3)c(F)cc3c(=O)c(C(=O)NNc4ccc(N)cc4)cn1c23` [Formula I]: the “inhibition of tumour growth” value with SW620 cells came out at 51%. Also, the “effect on lung metastasis” value in the assay with SW620^Gal3− cells is listed as “little effect”. In addition, the “lung metastasis in IVIS imaging” value with SW620^Gal3+ cells (14 days after tumour cell inoculation) is listed as “Substantially lower”. The “reduction of lung metastasis (metastasis nodules on lung surface)” value in the assay with SW620^Gal3+ cells (five weeks after tumour cell inoculation) is on record as 88%.
